Assay results published in PubChem BioAssay AID2060488 (Molecular Pharmacology Branch, DTP, NCI, 2025).

System: 966289-007-R4-J1-PDC complex spheroid viability
Assay: Anticancer human tumor 966289-007-R4-J1-PDC patient-derived pancreatic adenocarcinoma cell line growth inhibition [GQUAD]
Conditions: for IC50: curve of first compound; for viability, T/C: stronger effect = lower value; active = viability on the fitted dose curve at most 10% of control; inactive = the rest
Description: DNA G-quadruplex Stabilizer Agents in Combinations in Complex Spheroids
A high-throughput screen of multi-cell type tumor spheroids was designed to identify active combinations of DNA G-quadruplex stabilizer agents and targeted small molecules. Complex spheroids include a stromal component modeled by human endothelial cells (HUVEC) and fibroblasts modeled by human mesenchymal stem cells (MSCs). The concentration ranges selected for each drug and investigational agent were based upon clinically achievable concentrations if the clinical Cmax of the agent was known.
Compounds. The drugs and investigational agents: pidnarulex (CX-5461; NSC782164), APTO-253 (NSC789042), BRACO-19 (NSC847499), peposertib (NSC802822), ceralasertib (NSC780249), elimusertib (NSC800525), camonsertib (NSC841442), AZD-1390 (NSC803789), olaparib (NSC753686), talazoparib (NSC767125), ART-558 (NSC835418), sotorasib (NSC818433), MRTX-1133 (NSC836407), SN-38 (NSC673596), topotecan (NSC609699), etoposide (NSC141540), doxorubicin (NSC123127), gemcitabine (NSC613327), 5-fluorouracil (NSC19893), paclitaxel (NSC125973), vemurafenib (NSC761431), panobinostat (NSC761190), R-306465 (JNJ-16241199; NSC773264), adavosertib (NSC754352), TP-3654 (NSC805149), carboplatin (NSC241240), KSQ-4279 (NSC840948), and staurosporine (NSC755774) were obtained from the National Cancer Institute (NCI) Developmental Therapeutics Program Chemical Repository (34). The FDA-approved anticancer drug set is available from the NCI Developmental Therapeutics Program. […] The stock solutions were prepared in dimethyl sulfoxide (DMSO, Sigma-Aldrich, St. Louis, MO, cat. D2650) at 800-fold the tested concentration and stored at -70 degrees C prior to their use. All drugs and investigational agents were tested over a range starting from a high concentration at or near the clinical Cmax and decreasing in half-log increments. If the clinical Cmax for an agent had not been determined, the highest concentration tested was 10 microM.
2.3 Cell Culture. All cells were maintained in an incubator at 37 degrees C and 5% CO2 with 95% humidity. The PDC lines were cultured according to standard operating procedures established by the NCI PDMR. All PDCs were thawed and cultured in Matrigel-coated flasks prepared with a working solution of 1X Ham's F-12 nutrient mix, without supplementation (Invitrogen, cat. 11765054), 100 U/mL penicillin-streptomycin (Invitrogen, cat. 15140122), and 2.5% Matrigel (Corning Inc., cat. 354248) for the first three passages. The 857933-349-R-J2-PDC line was cultured in 6C/Colon 1B media, which includes advanced DMEM/F-12 (Thermo Fisher Scientific, cat. 12634028), 10 mM HEPES (Thermo Fisher Scientific, cat. 15630080), 1X GlutaMAX supplement (Thermo Fisher Scientific, cat. 35050061), 0.1 mg/mL primocin (InvivoGen, cat. ant-pm-2), 10% defined fetal bovine serum, heat inactivated (HyClone Laboratories Inc., cat. SH30070.03HI), 50% L-WRN conditioned media (ATCC, cat. CRL-3276), 1.25 mM N-Acetyl-L-cysteine (Sigma-Aldrich, cat. A9165), 10 mM nicotinamide (Sigma-Aldrich, cat. N0636), 1X B-27 supplement (Thermo Fisher Scientific, cat. 17504044), 1X N-2 supplement (Thermo Fisher Scientific, cat. 17502048), 10 microM Y-27632 dihydrochloride (Tocris Bioscience, cat. 1254), and 50 ng/mL human EGF recombinant protein (Thermo Fisher Scientific, cat. PHG0311). The 485176-168-R4-J1-PDC line was cultured in Panc media, which includes all 6C/Colon 1B media components plus 100 ng/mL human FGF-10 (Thermo Fisher Scientific, cat. 100-26), 500 nM SB-431542 (Selleckchem, cat. S1067), and gastrin (Tocris, cat. 3006).
[…]

[1] = second compound 0.0316 µM, first compound 0.0316 µM
[2] = second compound 0.0316 µM, first compound 0.1 µM
[3] = second compound 0.0316 µM, first compound 0.316 µM
[4] = second compound 0.0316 µM, first compound 1 µM
[5] = second compound 0.0316 µM, first compound 3.16 µM
[6] = second compound 0.0316 µM, first compound 10 µM
[7] = second compound 0.1 µM, first compound 0.0316 µM
[8] = second compound 0.1 µM, first compound 0.1 µM
[9] = second compound 0.1 µM, first compound 0.316 µM
[10] = second compound 0.1 µM, first compound 1 µM
[11] = second compound 0.1 µM, first compound 3.16 µM
[12] = second compound 0.1 µM, first compound 10 µM
[13] = second compound 0.316 µM, first compound 0.0316 µM
[14] = second compound 0.316 µM, first compound 0.1 µM
[15] = second compound 0.316 µM, first compound 0.316 µM
[16] = second compound 0.316 µM, first compound 1 µM
[17] = second compound 0.316 µM, first compound 3.16 µM
[18] = second compound 0.316 µM, first compound 10 µM
[19] = second compound 1 µM, first compound 0.0316 µM
[20] = second compound 1 µM, first compound 0.1 µM
[21] = second compound 1 µM, first compound 0.316 µM
[22] = second compound 1 µM, first compound 1 µM
[23] = second compound 1 µM, first compound 3.16 µM
[24] = second compound 1 µM, first compound 10 µM
[25] = second compound 3.16 µM, first compound 0.0316 µM
[26] = second compound 3.16 µM, first compound 0.1 µM
[27] = second compound 3.16 µM, first compound 0.316 µM
[28] = second compound 3.16 µM, first compound 1 µM
[29] = second compound 3.16 µM, first compound 3.16 µM
[30] = second compound 3.16 µM, first compound 10 µM
[31] = second compound 10 µM, first compound 0.0316 µM
[32] = second compound 10 µM, first compound 0.1 µM
[33] = second compound 10 µM, first compound 0.316 µM
[34] = second compound 10 µM, first compound 1 µM
[35] = second compound 10 µM, first compound 3.16 µM
[36] = second compound 10 µM, first compound 10 µM
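Note: spheroids exposed to the agents for seven days before readout.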
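Throughout, for viability, T/C: percent viability relative to DMSO vehicle control wells taken as 100%.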

C=CC(=O)N1CCN(c2nc(=O)n(-c3c(C)ccnc3C(C)C)c3nc(-c4c(O)cccc4F)c(F)cc23)C(C)C1 (centres undefined) + CN(C)c1ccc(Nc2c3ccc(NC(=O)CCN4CCCC4)cc3nc3cc(NC(=O)CCN4CCCC4)ccc23)cc1
inactive: viability, T/C [1] 107% | viability, T/C [2] 99.6% | viability, T/C [3] 106% | viability, T/C [4] 100% | viability, T/C [5] 106% | viability, T/C [6] 110% | viability, T/C [7] 101% | viability, T/C [8] 105% | viability, T/C [9] 105% | viability, T/C [10] 104% | viability, T/C [11] 102% | viability, T/C [12] 113% | viability, T/C [13] 96% | viability, T/C [14] 104% | viability, T/C [15] 106% | viability, T/C [16] 102% | viability, T/C [17] 97.1% | viability, T/C [18] 111% | viability, T/C [19] 94.3% | viability, T/C [20] 99.8% | viability, T/C [21] 102% | viability, T/C [22] 94.8% | viability, T/C [23] 108% | viability, T/C [24] 108% | viability, T/C [25] 99.6% | viability, T/C [26] 101% | viability, T/C [27] 107% | viability, T/C [28] 105% | viability, T/C [29] 106% | viability, T/C [30] 111% | viability, T/C [31] 105% | viability, T/C [32] 101% | viability, T/C [33] 108% | viability, T/C [34] 105% | viability, T/C [35] 106% | viability, T/C [36] 21.7%
6.78 µM: IC50 (second compound 10 µM)
> 10 µM: IC50 (second compound 0.0316 µM) | IC50 (second compound 0.1 µM) | IC50 (second compound 0.316 µM) | IC50 (second compound 1 µM) | IC50 (second compound 3.16 µM)

CC(C)n1c(=O)n(C)c2cnc3cc(F)c(-c4ccc(OCCCN5CCCCC5)nc4)cc3c21 + CN(C)c1ccc(Nc2c3ccc(NC(=O)CCN4CCCC4)cc3nc3cc(NC(=O)CCN4CCCC4)ccc23)cc1
5.67 µM: IC50 (second compound 3.16 µM)
active: viability, T/C [35] 5.65% | viability, T/C [36] 1.75%
0.269 µM: IC50 (second compound 10 µM)
inactive: viability, T/C [1] 108% | viability, T/C [2] 105% | viability, T/C [3] 108% | viability, T/C [4] 106% | viability, T/C [5] 108% | viability, T/C [6] 87.5% | viability, T/C [7] 103% | viability, T/C [8] 102% | viability, T/C [9] 106% | viability, T/C [10] 106% | viability, T/C [11] 107% | viability, T/C [12] 88% | viability, T/C [13] 98.1% | viability, T/C [14] 103% | viability, T/C [15] 107% | viability, T/C [16] 109% | viability, T/C [17] 107% | viability, T/C [18] 86.6% | viability, T/C [19] 103% | viability, T/C [20] 99.5% | viability, T/C [21] 107% | viability, T/C [22] 108% | viability, T/C [23] 103% | viability, T/C [24] 70.5% | viability, T/C [25] 102% | viability, T/C [26] 104% | viability, T/C [27] 107% | viability, T/C [28] 102% | viability, T/C [29] 87.1% | viability, T/C [30] 14.1% | viability, T/C [31] 98.7% | viability, T/C [32] 79% | viability, T/C [33] 46% | viability, T/C [34] 16%
> 10 µM: IC50 (second compound 0.0316 µM) | IC50 (second compound 0.1 µM) | IC50 (second compound 0.316 µM) | IC50 (second compound 1 µM)
